# Measured values published in the supplement of paper PMC8882468.
# Tested on: HCI-019 (organoid from a triple-negative breast cancer xenograft)
# Test: CTG-3D luminescence at 96 h relative to day-0 seeding control (ratio to day 0); higher = more growth / less cytotoxicity; PDxO 3D drug screen, 96 h, CTG-3D normalised to day-0 seeding control.
# Settings: 100 µM; days in culture: 131
row,SMILES,CTG-3D luminescence at 96 h
1,C[C@H](NC(=O)CCC(F)(F)F)C(=O)N[C@@H]1C(=O)N(CCO)c2ncccc2-c2ccccc21 [crenigacestat],3.41
2,COc1cccc2c1C(=O)c1c(O)c3c(c(O)c1C2=O)C[C@@](O)(C(=O)CO)C[C@@H]3O[C@H]1C[C@H](N)[C@H](O)[C@H](C)O1 [doxorubicin],-0.0127
3,C[C@]12CC[C@@H]3c4ccc(O)cc4C[C@@H](CCCCCCCCC[S+]([O-])CCCC(F)(F)C(F)(F)F)[C@H]3[C@@H]1CC[C@@H]2O (stereo partly specified) [fulvestrant],1.94
4,Nc1ccn([C@@H]2O[C@H](CO)[C@@H](O)C2(F)F)c(=O)n1 [gemcitabine],0.213
5,C=CC(=O)N1CCC[C@@H](n2nc(-c3ccc(Oc4ccccc4)cc3)c3c(N)ncnc32)C1 [ibrutinib],-0.0163
6,CN(Cc1cnc2nc(N)nc(N)c2n1)c1ccc(C(=O)N[C@@H](CCC(=O)O)C(=O)O)cc1 [methotrexate],2.11
7,CC1(C)CCC(c2ccc(Cl)cc2)=C(CN2CCN(c3ccc(C(=O)NS(=O)(=O)c4ccc(N[C@H](CCN5CCOCC5)CSc5ccccc5)c(S(=O)(=O)C(F)(F)F)c4)cc3)CC2)C1 [navitoclax],0.0147
8,NC(=O)c1cccc2cn(-c3ccc([C@@H]4CCCNC4)cc3)nc12 [niraparib],0.00628

# Same assay, conditions: 100 µM; days in culture: 152
row,SMILES,CTG-3D luminescence at 96 h
1,C[C@H](NC(=O)CCC(F)(F)F)C(=O)N[C@@H]1C(=O)N(CCO)c2ncccc2-c2ccccc21 [crenigacestat],2
2,COc1cccc2c1C(=O)c1c(O)c3c(c(O)c1C2=O)C[C@@](O)(C(=O)CO)C[C@@H]3O[C@H]1C[C@H](N)[C@H](O)[C@H](C)O1 [doxorubicin],-0.00918
3,C[C@]12CC[C@@H]3c4ccc(O)cc4C[C@@H](CCCCCCCCC[S+]([O-])CCCC(F)(F)C(F)(F)F)[C@H]3[C@@H]1CC[C@@H]2O (stereo partly specified) [fulvestrant],1.6
4,Nc1ccn([C@@H]2O[C@H](CO)[C@@H](O)C2(F)F)c(=O)n1 [gemcitabine],0.424
5,C=CC(=O)N1CCC[C@@H](n2nc(-c3ccc(Oc4ccccc4)cc3)c3c(N)ncnc32)C1 [ibrutinib],-0.00421
6,CN(Cc1cnc2nc(N)nc(N)c2n1)c1ccc(C(=O)N[C@@H](CCC(=O)O)C(=O)O)cc1 [methotrexate],2.16
7,CC1(C)CCC(c2ccc(Cl)cc2)=C(CN2CCN(c3ccc(C(=O)NS(=O)(=O)c4ccc(N[C@H](CCN5CCOCC5)CSc5ccccc5)c(S(=O)(=O)C(F)(F)F)c4)cc3)CC2)C1 [navitoclax],0.00119
8,NC(=O)c1cccc2cn(-c3ccc([C@@H]4CCCNC4)cc3)nc12 [niraparib],0.00267

# Same assay, conditions: 625 fM; days in culture: 110
row,SMILES,CTG-3D luminescence at 96 h
1,C[C@H](NC(=O)CCC(F)(F)F)C(=O)N[C@@H]1C(=O)N(CCO)c2ncccc2-c2ccccc21 [crenigacestat],2.28
2,COc1cccc2c1C(=O)c1c(O)c3c(c(O)c1C2=O)C[C@@](O)(C(=O)CO)C[C@@H]3O[C@H]1C[C@H](N)[C@H](O)[C@H](C)O1 [doxorubicin],1.91
3,C[C@]12CC[C@@H]3c4ccc(O)cc4C[C@@H](CCCCCCCCC[S+]([O-])CCCC(F)(F)C(F)(F)F)[C@H]3[C@@H]1CC[C@@H]2O (stereo partly specified) [fulvestrant],1.57
4,Nc1ccn([C@@H]2O[C@H](CO)[C@@H](O)C2(F)F)c(=O)n1 [gemcitabine],2.3
5,C=CC(=O)N1CCC[C@@H](n2nc(-c3ccc(Oc4ccccc4)cc3)c3c(N)ncnc32)C1 [ibrutinib],2.04
6,CN(Cc1cnc2nc(N)nc(N)c2n1)c1ccc(C(=O)N[C@@H](CCC(=O)O)C(=O)O)cc1 [methotrexate],2.13
7,CC1(C)CCC(c2ccc(Cl)cc2)=C(CN2CCN(c3ccc(C(=O)NS(=O)(=O)c4ccc(N[C@H](CCN5CCOCC5)CSc5ccccc5)c(S(=O)(=O)C(F)(F)F)c4)cc3)CC2)C1 [navitoclax],2.31
8,NC(=O)c1cccc2cn(-c3ccc([C@@H]4CCCNC4)cc3)nc12 [niraparib],2.72

# Same assay, conditions: 625 fM; days in culture: 131
row,SMILES,CTG-3D luminescence at 96 h
1,C[C@H](NC(=O)CCC(F)(F)F)C(=O)N[C@@H]1C(=O)N(CCO)c2ncccc2-c2ccccc21 [crenigacestat],3.74
2,COc1cccc2c1C(=O)c1c(O)c3c(c(O)c1C2=O)C[C@@](O)(C(=O)CO)C[C@@H]3O[C@H]1C[C@H](N)[C@H](O)[C@H](C)O1 [doxorubicin],4.1
3,C[C@]12CC[C@@H]3c4ccc(O)cc4C[C@@H](CCCCCCCCC[S+]([O-])CCCC(F)(F)C(F)(F)F)[C@H]3[C@@H]1CC[C@@H]2O (stereo partly specified) [fulvestrant],4.13
4,Nc1ccn([C@@H]2O[C@H](CO)[C@@H](O)C2(F)F)c(=O)n1 [gemcitabine],3.6
5,C=CC(=O)N1CCC[C@@H](n2nc(-c3ccc(Oc4ccccc4)cc3)c3c(N)ncnc32)C1 [ibrutinib],2.86
6,CN(Cc1cnc2nc(N)nc(N)c2n1)c1ccc(C(=O)N[C@@H](CCC(=O)O)C(=O)O)cc1 [methotrexate],3.85
7,CC1(C)CCC(c2ccc(Cl)cc2)=C(CN2CCN(c3ccc(C(=O)NS(=O)(=O)c4ccc(N[C@H](CCN5CCOCC5)CSc5ccccc5)c(S(=O)(=O)C(F)(F)F)c4)cc3)CC2)C1 [navitoclax],3.96
8,NC(=O)c1cccc2cn(-c3ccc([C@@H]4CCCNC4)cc3)nc12 [niraparib],3.35

# Same assay, conditions: 625 fM; days in culture: 152
row,SMILES,CTG-3D luminescence at 96 h
1,C[C@H](NC(=O)CCC(F)(F)F)C(=O)N[C@@H]1C(=O)N(CCO)c2ncccc2-c2ccccc21 [crenigacestat],2.48
2,COc1cccc2c1C(=O)c1c(O)c3c(c(O)c1C2=O)C[C@@](O)(C(=O)CO)C[C@@H]3O[C@H]1C[C@H](N)[C@H](O)[C@H](C)O1 [doxorubicin],2.03
3,C[C@]12CC[C@@H]3c4ccc(O)cc4C[C@@H](CCCCCCCCC[S+]([O-])CCCC(F)(F)C(F)(F)F)[C@H]3[C@@H]1CC[C@@H]2O (stereo partly specified) [fulvestrant],2.94
4,Nc1ccn([C@@H]2O[C@H](CO)[C@@H](O)C2(F)F)c(=O)n1 [gemcitabine],2.77
5,C=CC(=O)N1CCC[C@@H](n2nc(-c3ccc(Oc4ccccc4)cc3)c3c(N)ncnc32)C1 [ibrutinib],2.48
6,CN(Cc1cnc2nc(N)nc(N)c2n1)c1ccc(C(=O)N[C@@H](CCC(=O)O)C(=O)O)cc1 [methotrexate],2.17
7,CC1(C)CCC(c2ccc(Cl)cc2)=C(CN2CCN(c3ccc(C(=O)NS(=O)(=O)c4ccc(N[C@H](CCN5CCOCC5)CSc5ccccc5)c(S(=O)(=O)C(F)(F)F)c4)cc3)CC2)C1 [navitoclax],2.39
8,NC(=O)c1cccc2cn(-c3ccc([C@@H]4CCCNC4)cc3)nc12 [niraparib],2.35

# Tested on: HCI-016 (organoid from a triple-negative breast cancer xenograft)
# Test: as above
# Settings: 12.5 pM; days in culture: 153
row,SMILES,CTG-3D luminescence at 96 h
1,C[C@H](NC(=O)CCC(F)(F)F)C(=O)N[C@@H]1C(=O)N(CCO)c2ncccc2-c2ccccc21 [crenigacestat],2.83
2,COc1cccc2c1C(=O)c1c(O)c3c(c(O)c1C2=O)C[C@@](O)(C(=O)CO)C[C@@H]3O[C@H]1C[C@H](N)[C@H](O)[C@H](C)O1 [doxorubicin],2.98
3,C[C@]12CC[C@@H]3c4ccc(O)cc4C[C@@H](CCCCCCCCC[S+]([O-])CCCC(F)(F)C(F)(F)F)[C@H]3[C@@H]1CC[C@@H]2O (stereo partly specified) [fulvestrant],2.93
4,Nc1ccn([C@@H]2O[C@H](CO)[C@@H](O)C2(F)F)c(=O)n1 [gemcitabine],2.99
5,C=CC(=O)N1CCC[C@@H](n2nc(-c3ccc(Oc4ccccc4)cc3)c3c(N)ncnc32)C1 [ibrutinib],3.08
6,CN(Cc1cnc2nc(N)nc(N)c2n1)c1ccc(C(=O)N[C@@H](CCC(=O)O)C(=O)O)cc1 [methotrexate],3.33
7,CC1(C)CCC(c2ccc(Cl)cc2)=C(CN2CCN(c3ccc(C(=O)NS(=O)(=O)c4ccc(N[C@H](CCN5CCOCC5)CSc5ccccc5)c(S(=O)(=O)C(F)(F)F)c4)cc3)CC2)C1 [navitoclax],3.08
8,NC(=O)c1cccc2cn(-c3ccc([C@@H]4CCCNC4)cc3)nc12 [niraparib],2.7

# Same assay, conditions: 12.5 pM; days in culture: 172
row,SMILES,CTG-3D luminescence at 96 h
1,C[C@H](NC(=O)CCC(F)(F)F)C(=O)N[C@@H]1C(=O)N(CCO)c2ncccc2-c2ccccc21 [crenigacestat],2.16
2,COc1cccc2c1C(=O)c1c(O)c3c(c(O)c1C2=O)C[C@@](O)(C(=O)CO)C[C@@H]3O[C@H]1C[C@H](N)[C@H](O)[C@H](C)O1 [doxorubicin],2.04
3,C[C@]12CC[C@@H]3c4ccc(O)cc4C[C@@H](CCCCCCCCC[S+]([O-])CCCC(F)(F)C(F)(F)F)[C@H]3[C@@H]1CC[C@@H]2O (stereo partly specified) [fulvestrant],2.46
4,Nc1ccn([C@@H]2O[C@H](CO)[C@@H](O)C2(F)F)c(=O)n1 [gemcitabine],1.95
5,C=CC(=O)N1CCC[C@@H](n2nc(-c3ccc(Oc4ccccc4)cc3)c3c(N)ncnc32)C1 [ibrutinib],1.97
6,CN(Cc1cnc2nc(N)nc(N)c2n1)c1ccc(C(=O)N[C@@H](CCC(=O)O)C(=O)O)cc1 [methotrexate],2.17
7,CC1(C)CCC(c2ccc(Cl)cc2)=C(CN2CCN(c3ccc(C(=O)NS(=O)(=O)c4ccc(N[C@H](CCN5CCOCC5)CSc5ccccc5)c(S(=O)(=O)C(F)(F)F)c4)cc3)CC2)C1 [navitoclax],2.29
8,NC(=O)c1cccc2cn(-c3ccc([C@@H]4CCCNC4)cc3)nc12 [niraparib],2.42
